# According to publication PMC12508156, “Non-canonical dihydrolipoyl transacetylase promotes chemotherapy resistance via mitochondrial tetrahydrofolate signaling” (Nature Communications, 2025):
# Several values for one entry are separate records, joined by “and”; a condition that tells them apart may be missing. Identical values can stand only once.
# Key:
# [1] = tested on: A549cisR and KB-3-1cisR cells; test: Cell cycle distribution (propidium iodide, flow cytometry); format: cell-based, human
# Method: Cell viability was determined using the CellTiter-Glo Luminescent Cell Viability Assay. […] Subsequently, the cells were cultured in complete medium for an additional 10 days, and the resulting colonies were visualized by staining with crystal violet and quantified using ImageJ software. For cell cycle analysis, cells fixed with 70% ethanol were stained with RNase A (100 µg/mL) and propidium iodide (50 μg/ml) for 30 min at 37 °C, and DNA content distribution was measured using flow cytometry (BD Symphony A3) and analyzed with FlowJo software (v10.9). Apoptotic cell death was assessed via FITC-conjugated annexin V and propidium iodide staining.
# 1cisR cells were transduced with DLAT-targeting shRNA and treated with sublethal doses of […]
# antioxidant N-acetylcysteine (NAC). (a) Western blot analysis of p21 waf1/cip1 expression as a marker of cellular senescence. (b) Western blot analysis of LC3-I/II and p62 as markers of autophagy. (c) Cell cycle distribution was assessed by flow cytometry following propidium iodide staining. (d) Intracellular ROS levels were measured using the H2DCFDA probe. Error bars represent SD and are from 3 independent biological replicates for (c,d). P values were determined by one-way ANOVA.
# (1 picture or pasted object on this page, not shown here)
# KB-3-1cisR cells = details: read-out: cisplatin IC50; KB-3-1cisR cells generated by continuous exposure to cisplatin; cited from earlier work
# Method: (§1) The RNAi library contains 328 shRNA clones, and each gene was targeted by 2 ~ 8 clones (Fig. 1a). Eleven genes, including DLAT, were selected as unexplored lead hits with cisplatin-sensitizing potential and were further evaluated in A549^cisR, H1299, and KB-3-1^cisR, and two acetyltrans ... || HCT116 and HT-29 colon cancer cell lines, MDA-MB231, HeLa, 293T, and KB-3-1^cisR cells were cultured in Dulbecco Modified Eagle Medium (DMEM). The PCI-37B and FaDu cell lines was maintained in DMEM/Ham’s F-12 50/50 mix medium. […] All media contained 100 U/ml penicillin and 100 μg/ml of streptomycin, supplemented with 10% fetal bovine serum. The identity of KB-3-1 and PCI-37B cells were described previously[45],[58],[59]. All other cell lines were from the American Type Culture Collection (ATCC). KB-3-1^cisR and A549^cisR cells w ...
# A549cisR cells = details: read-out: cisplatin IC50; A549cisR cells generated by continuous exposure to cisplatin; cited from earlier work
# Method: as §1
# H1299 cells = test: Apoptotic cell death (annexin V/PI staining); format: cell-based, human; details: cisplatin 5 μg/ml, 48 h, n=1-3: biological replicates
# ATP = test: Intracellular ATP level; format: cell-based, human; design: unit not given here
# Method: Cellular metabolic states were examined through various assays. To gauge the levels of total intracellular or mitochondrial reactive oxygen species (ROS), cells were stained with CM-H2DCFDA or mitoSOX, respectively. Intracellular H2O2, NADPH, acetyl-CoA, and GSH/GSSG ratios were quantified using commercial assay kits as listed in the Reagents. Intracellular ATP levels were determined utilizing the ATP bioluminescent somatic cell assay and normalized to the total protein concentrations. The de novo synthesized RNA and proteins were assessed in cancer cells using commercial assays following the manufacturer’s protocols. In brief, O-propargyl-puromycin or uridine analog, 5-EU, was applied to stop translation or modify RNA. Polypeptides or modified RNA were measured using fluorescent azide with Ex/Em at 494/521 nm. PDC activity was determined by measuring the reduction of NAD+ to NADH during the conversion of pyruvate into acetyl-CoA.
# GSH/GSSG = GSH/GSSG ratio (GSH/GSSG-Glo); format: cell-based, human
# [2] = A549cisR cells, pLKO.1, replicate 1
# [3] = A549cisR cells, pLKO.1, replicate 2
# [4] = A549cisR cells, pLKO.1, replicate 3
# [5] = A549cisR cells, shDLAT, replicate 1
# [6] = A549cisR cells, shDLAT, replicate 2
# [7] = A549cisR cells, shDLAT, replicate 3
# [8] = KB-3-1cisR cells, pLKO.1, replicate 1
# [9] = KB-3-1cisR cells, pLKO.1, replicate 2
# [10] = KB-3-1cisR cells, pLKO.1, replicate 3
# [11] = KB-3-1cisR cells, shDLAT, replicate 1
# [12] = KB-3-1cisR cells, shDLAT, replicate 2
# [13] = KB-3-1cisR cells, shDLAT, replicate 3
compound,measurement,setting,value
N.N.[Cl][Pt][Cl] [cisplatin],"Cell cycle, G1 phase",[1]; [2],34.1
same,"Cell cycle, G2 phase",[1]; [2],36.2
same,"Cell cycle, S phase",[1]; [2],29.7
same,"Cell cycle, G1 phase",[1]; [3],33.1
same,"Cell cycle, G2 phase",[1]; [3],39.3
same,"Cell cycle, G1 phase",[1]; [4],33.1
same,"Cell cycle, G2 phase",[1]; [4],38.8
same,"Cell cycle, S phase",[1]; [4],28.1
same,"Cell cycle, G1 phase",[1]; [5],39.2
same,"Cell cycle, G2 phase",[1]; [5],37.2
same,"Cell cycle, S phase",[1]; [5],23.6
same,"Cell cycle, G1 phase",[1]; [6],39.5
same,"Cell cycle, G2 phase",[1]; [6],39.6
same,"Cell cycle, S phase",[1]; [6],20.9
same,"Cell cycle, G1 phase",[1]; [7],39.5
same,"Cell cycle, G2 phase",[1]; [7],38.6
same,"Cell cycle, S phase",[1]; [7],21.9
same,"Cell cycle, G1 phase",[1]; [8],23.3
same,"Cell cycle, G2 phase",[1]; [8],58.9
same,"Cell cycle, S phase",[1]; [8],17.8
same,"Cell cycle, G1 phase",[1]; [9],23.7
same,"Cell cycle, G2 phase",[1]; [9],58.1
same,"Cell cycle, S phase",[1]; [9],18.2
same,"Cell cycle, G1 phase",[1]; [10],24.3
same,"Cell cycle, G2 phase",[1]; [10],57.9
same,"Cell cycle, S phase",[1]; [10],17.8
same,"Cell cycle, G1 phase",[1]; [11],18.3
same,"Cell cycle, G2 phase",[1]; [11],63.6
same,"Cell cycle, S phase",[1]; [11],18.1
same,"Cell cycle, G1 phase",[1]; [12],17.6
same,"Cell cycle, G2 phase",[1]; [12],63.5
same,"Cell cycle, S phase",[1]; [12],18.9
same,"Cell cycle, G1 phase",[1]; [13],17
same,"Cell cycle, S phase",[1]; [13],19.8
same,IC50,KB-3-1cisR cells,60.5 µM
same,IC50,A549cisR cells,17.6 µM
same,Apoptotic death,H1299 cells; H1299 pLKO.1,12.41
same,Apoptotic death,H1299 cells; H1299 shDLAT #1,23.45 and 22.74
same,Apoptotic death,H1299 cells; H1299 shDLAT #2,18.43
same,ATP level,"ATP; A549cisR, pLKO.1, n=1 (Figure 3B)",1.319
same,ATP level,"ATP; A549cisR, pLKO.1, n=2 (Figure 3B)",1.28
same,ATP level,"ATP; A549cisR, pLKO.1, n=3 (Figure 3B)",1.1923
same,ATP level,"ATP; A549cisR, shDLAT, n=1 (Figure 3B)",1.405
same,ATP level,"ATP; A549cisR, shDLAT, n=2 (Figure 3B)",1.318
same,ATP level,"ATP; A549cisR, shDLAT, n=3 (Figure 3B)",1.292
same,ATP level,"ATP; KB-3-1cisR, pLKO.1, n=1 (Figure 3B)",1.593
same,ATP level,"ATP; KB-3-1cisR, pLKO.1, n=2 (Figure 3B)",1.725
same,ATP level,"ATP; KB-3-1cisR, pLKO.1, n=3 (Figure 3B)",1.722
same,ATP level,"ATP; KB-3-1cisR, shDLAT, n=1 (Figure 3B)",1.707
same,ATP level,"ATP; KB-3-1cisR, shDLAT, n=2 (Figure 3B)",1.7048
same,ATP level,"ATP; KB-3-1cisR, shDLAT, n=3 (Figure 3B)",1.693
same,GSH/GSSG,"GSH/GSSG; A549cisR cells, pLKO.1, n=1",18.3651
same,GSH/GSSG,"GSH/GSSG; A549cisR cells, pLKO.1, n=3",19.3614
same,GSH/GSSG,"GSH/GSSG; A549cisR cells, pLKO.1, n=4",18.0395
same,GSH/GSSG,"GSH/GSSG; A549cisR cells, shDLAT, n=1",8.402
same,GSH/GSSG,"GSH/GSSG; A549cisR cells, shDLAT, n=2",8.901
same,GSH/GSSG,"GSH/GSSG; A549cisR cells, shDLAT, n=4",10.9995
same,GSH/GSSG,"GSH/GSSG; A549cisR, CTL, sheet Figure 5G, replicate n=1",25.1517
same,GSH/GSSG,"GSH/GSSG; A549cisR, CTL, sheet Figure 5G, replicate n=2",26.0996
same,GSH/GSSG,"GSH/GSSG; A549cisR, CTL, sheet Figure 5G, replicate n=3",23.5884
same,GSH/GSSG,"GSH/GSSG; A549cisR, shDLAT+Flag-MTHFD2 (K44Q), sheet Figure 5G, replicate n=1",31.9457
same,GSH/GSSG,"GSH/GSSG; A549cisR, shDLAT+Flag-MTHFD2 (K44Q), sheet Figure 5G, replicate n=2",29.1783
same,GSH/GSSG,"GSH/GSSG; A549cisR, shDLAT+Flag-MTHFD2 (K44Q), sheet Figure 5G, replicate n=3",30.4077
same,GSH/GSSG,"GSH/GSSG; A549cisR, shDLAT+Flag-MTHFD2 (K44R), sheet Figure 5G, replicate n=1",8.894
same,GSH/GSSG,"GSH/GSSG; A549cisR, shDLAT+Flag-MTHFD2 (K44R), sheet Figure 5G, replicate n=2",10.2513
same,GSH/GSSG,"GSH/GSSG; A549cisR, shDLAT+Flag-MTHFD2 (K44R), sheet Figure 5G, replicate n=3",9.633
same,GSH/GSSG,"GSH/GSSG; A549cisR, shDLAT, sheet Figure 5G, replicate n=1",8.501
same,GSH/GSSG,"GSH/GSSG; A549cisR, shDLAT, sheet Figure 5G, replicate n=2",9.861
same,GSH/GSSG,"GSH/GSSG; A549cisR, shDLAT, sheet Figure 5G, replicate n=3",10.404
same,GSH/GSSG,"GSH/GSSG; KB-3-1cisR cells, pLKO.1, n=1",14.1658
same,GSH/GSSG,"GSH/GSSG; KB-3-1cisR cells, pLKO.1, n=2",13.5059
same,GSH/GSSG,"GSH/GSSG; KB-3-1cisR cells, pLKO.1, n=3",14.1711
same,GSH/GSSG,"GSH/GSSG; KB-3-1cisR cells, pLKO.1, n=4",12.6758
same,GSH/GSSG,"GSH/GSSG; KB-3-1cisR cells, shDLAT, n=3",6.177
same,GSH/GSSG,"GSH/GSSG; KB-3-1cisR cells, shDLAT, n=4",6.252
same,GSH/GSSG,"GSH/GSSG; KB-3-1cisR, CTL, sheet Figure 5G, replicate n=1",15.3805
same,GSH/GSSG,"GSH/GSSG; KB-3-1cisR, CTL, sheet Figure 5G, replicate n=2",14.4145
same,GSH/GSSG,"GSH/GSSG; KB-3-1cisR, CTL, sheet Figure 5G, replicate n=3",16.7699
same,GSH/GSSG,"GSH/GSSG; KB-3-1cisR, shDLAT+Flag-MTHFD2 (K44Q), sheet Figure 5G, replicate n=1",25.3381
same,GSH/GSSG,"GSH/GSSG; KB-3-1cisR, shDLAT+Flag-MTHFD2 (K44Q), sheet Figure 5G, replicate n=2",26.6695
same,GSH/GSSG,"GSH/GSSG; KB-3-1cisR, shDLAT+Flag-MTHFD2 (K44Q), sheet Figure 5G, replicate n=3",26.7501
same,GSH/GSSG,"GSH/GSSG; KB-3-1cisR, shDLAT+Flag-MTHFD2 (K44R), sheet Figure 5G, replicate n=1",6.376
same,GSH/GSSG,"GSH/GSSG; KB-3-1cisR, shDLAT+Flag-MTHFD2 (K44R), sheet Figure 5G, replicate n=2",6.273
same,GSH/GSSG,"GSH/GSSG; KB-3-1cisR, shDLAT+Flag-MTHFD2 (K44R), sheet Figure 5G, replicate n=3",6.832
same,GSH/GSSG,"GSH/GSSG; KB-3-1cisR, shDLAT, sheet Figure 5G, replicate n=1",7.027
same,GSH/GSSG,"GSH/GSSG; KB-3-1cisR, shDLAT, sheet Figure 5G, replicate n=2",6.914
same,GSH/GSSG,"GSH/GSSG; KB-3-1cisR, shDLAT, sheet Figure 5G, replicate n=3",7.456
